Experimental data taken from patent publication EP0041644B1 (priority 1980, dated 1981).

What was measured:
[1] = system: L1210 Leukemia; assay: L1210 Leukemia - Test 1 (survival of tumor-bearing mice); format: in vivo; conditions: d. 1 only
Text: This evaluation of the ammonium salt finds the drug to be active against L1210 (ip) leukemia when administered ip one day post-implant of 10^6 L1210 cells (maximum T/C was 164%). […] The vehicle for the ammonium salt was water.

[2] = system: L-1210 Leukemia; assay: L-1210 Leukemia (Table VIII)
Procedure: The sodium and ammonium salts of the present invention were tested against transplantable mouse tumors as indicated below. The methodology used generally followed the protocols of the National Cancer Institute (Cancer Chemotherapy Rep., Part 3, 3, 1-103 (1972). The essential experimental details are given at the bottom of the following tables.

[3] = system: B16 Melanoma; assay: B16 Melanoma - Test 3 (sc trocar fragments); format: in vivo, mice

N.N.[Cl][Pt][Cl] [Cis-DDP, cis-diammine dichloroplatinum (II)]
MST Days ([1]; 4 mg/kg/day ip, in saline): 11.5 days | Survivors Day 5(30) ([1]; 4 mg/kg/day ip, in saline): 6/6 | Average Weight Change ([1]; 6 mg/kg/day ip, in H2O): TOX | Effect MST % T/C ([1]; 6 mg/kg/day ip, in H2O): TOX | MST Days ([1]; 6 mg/kg/day ip, in H2O): TOX | Survivors Day 5(30) ([1]; 6 mg/kg/day ip, in H2O): 1/6 | Effect MST % T/C ([1]; 6 mg/kg/day ip, in saline): 186 % T/C | MST Days ([1]; 6 mg/kg/day ip, in saline): 13.0 days | Survivors Day 5(30) ([1]; 6 mg/kg/day ip, in saline): 6/6 | Average Weight Change ([1]; 8 mg/kg/day ip, in H2O): TOX | Effect MST % T/C ([1]; 8 mg/kg/day ip, in H2O): TOX | MST Days ([1]; 8 mg/kg/day ip, in H2O): TOX | Survivors Day 5(30) ([1]; 8 mg/kg/day ip, in H2O): 4/6 | Effect MST % T/C ([1]; 8 mg/kg/day ip, in saline): 193 % T/C | MST Days ([1]; 8 mg/kg/day ip, in saline): 13.5 days | Survivors Day 5(30) ([1]; 8 mg/kg/day ip, in saline): 6/6 | Average Weight Change ([1]; 10 mg/kg/day ip, in H2O): TOX | Effect MST % T/C ([1]; 10 mg/kg/day ip, in H2O): TOX | MST Days ([1]; 10 mg/kg/day ip, in H2O): TOX | Survivors Day 5(30) ([1]; 10 mg/kg/day ip, in H2O): 1/6 | Average Weight Change ([1]; 10 mg/kg/day ip, in saline): −3.6 | MST Days ([1]; 10 mg/kg/day ip, in saline): 14.5 days | Survivors Day 5(30) ([1]; 10 mg/kg/day ip, in saline): 6/6 | Average Weight Change,g ([2]; 0.4 mg/kg/inj ip, qd 1→9): +0.8 g | Effect MST % T/C ([2]; 0.4 mg/kg/inj ip, qd 1→9): 117 % T/C | MST Days ([2]; 0.4 mg/kg/inj ip, qd 1→9): 7.0 days | Survivors Day 5(30) ([2]; 0.4 mg/kg/inj ip, qd 1→9): 6/6 | Average Weight Change,g ([2]; 0.8 mg/kg/inj ip, qd 1→9): -0.8 g | Effect MST % T/C ([2]; 0.8 mg/kg/inj ip, qd 1→9): 133 % T/C | MST Days ([2]; 0.8 mg/kg/inj ip, qd 1→9): 8.0 days | Survivors Day 5(30) ([2]; 0.8 mg/kg/inj ip, qd 1→9): 6/6 | Average Weight Change,g ([2]; 1.6 mg/kg/inj ip, qd 1→9): -2.5 g | Effect MST % T/C ([2]; 1.6 mg/kg/inj ip, qd 1→9): 200 % T/C | MST Days ([2]; 1.6 mg/kg/inj ip, qd 1→9): 12.0 days | Survivors Day 5(30) ([2]; 1.6 mg/kg/inj ip, qd 1→9): 6/6 | Average Weight Change,g ([2]; 2.4 mg/kg/inj ip, qd 1→9): -3.1 g | Effect MST % T/C ([2]; 2.4 mg/kg/inj ip, qd 1→9): 167 % T/C | MST Days ([2]; 2.4 mg/kg/inj ip, qd 1→9): 10.0 days | Survivors Day 5(30) ([2]; 2.4 mg/kg/inj ip, qd 1→9): 6/6 | Average Weight Change,g ([2]; 4 mg/kg/inj ip, d.1): -1.5 g | Effect MST % T/C ([2]; 4 mg/kg/inj ip, d.1): 167 % T/C | MST Days ([2]; 4 mg/kg/inj ip, d.1): 10.0 days | Survivors Day 5(30) ([2]; 4 mg/kg/inj ip, d.1): 6/6 | Average Weight Change,g ([2]; 6 mg/kg/inj ip, d.1): -3.7 g | Effect MST % T/C ([2]; 6 mg/kg/inj ip, d.1): 167 % T/C | MST Days ([2]; 6 mg/kg/inj ip, d.1): 10.0 days | Survivors Day 5(30) ([2]; 6 mg/kg/inj ip, d.1): 6/6 | Average Weight Change,g ([2]; 8 mg/kg/inj ip, d.1): -2.8 g | Effect MST % T/C ([2]; 8 mg/kg/inj ip, d.1): 158 % T/C | MST Days ([2]; 8 mg/kg/inj ip, d.1): 9.5 days | Survivors Day 5(30) ([2]; 8 mg/kg/inj ip, d.1): 6/6 | Average Weight Change,g ([2]; 10 mg/kg/inj ip, d.1): -2.0 g | Effect MST % T/C ([2]; 10 mg/kg/inj ip, d.1): 208 % T/C | MST Days ([2]; 10 mg/kg/inj ip, d.1): 12.5 days | Survivors Day 5(30) ([2]; 10 mg/kg/inj ip, d.1): 6/6 | maximum T/C ([2]; qd 1→9, 1.6 mg/kg/inj): 200% | maximum T/C ([2]; single ip injections): 208% | optimal doses ([2]; single ip injections, dose of maximum T/C): 10 mg/kg | Average Weight Change ([3]; 0.8 mg/kg/inj ip, qd 1→9): -0.4 g | Effect MST %TC ([3]; 0.8 mg/kg/inj ip, qd 1→9): 113 %TC | MST Days ([3]; 0.8 mg/kg/inj ip, qd 1→9): 34.5 days | Average Weight Change ([3]; 1.6 mg/kg/inj ip, qd 1→9): -2.4 g | Effect MST %TC ([3]; 1.6 mg/kg/inj ip, qd 1→9): 118 %TC | MST Days ([3]; 1.6 mg/kg/inj ip, qd 1→9): 36.0 days | Average Weight Change ([3]; 2.4 mg/kg/inj ip, qd 1→9): -3.5 g | Effect MST %TC ([3]; 2.4 mg/kg/inj ip, qd 1→9): 97 %TC | MST Days ([3]; 2.4 mg/kg/inj ip, qd 1→9): 29.5 days | Average Weight Change ([3]; 4 mg/kg/inj iv, d.1, 5 & 9): -0.6 g | Effect MST %TC ([3]; 4 mg/kg/inj iv, d.1, 5 & 9): 156 %TC | MST Days ([3]; 4 mg/kg/inj iv, d.1, 5 & 9): 47.5 days | Average Weight Change ([3]; 6 mg/kg/inj iv, d.1, 5 & 9): -2.2 g | Effect MST %TC ([3]; 6 mg/kg/inj iv, d.1, 5 & 9): 131 %TC | MST Days ([3]; 6 mg/kg/inj iv, d.1, 5 & 9): 40.0 days | Average Weight Change ([3]; 8 mg/kg/inj iv, d.1, 5 & 9): -2.8 g | Effect MST %TC ([3]; 8 mg/kg/inj iv, d.1, 5 & 9): 125 %TC | MST Days ([3]; 8 mg/kg/inj iv, d.1, 5 & 9): 38.0 days | Survivors Day 10 (60) ([3]; 8 mg/kg/inj iv, d.1, 5 & 9): 9/10 | T/C ([3]; given ip, sc-implanted B16 melanoma): inactive | maximum T/C ([3]; given iv, sc-implanted B16 melanoma): 156%
